Results as given in ChEMBL document CHEMBL1201862, “PubChem BioAssay data set” (2004).
Activity calls are given as the source filed them.

Tests used:
[1] = molecular target: Lysosomal acid glucosylceramidase (Homo sapiens, UniProt P04062); test: Dose response cell-based high throughput screening assay to identify enhancers of beta-glucosidase activity. [Related pubchem assays: 784 ]; format: functional
Cytochrome P450 3A4 = Cytochrome P450 3A4 (Homo sapiens, UniProt P08684); details: Potency;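 note: confirmatory qHTS run detecting inhibitors and substrates of CYP3A4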
Cytochrome P450 2D6 = Cytochrome P450 2D6 (Homo sapiens, UniProt P10635); test: qHTS Assay for Inhibitors and Substrates of Cytochrome P450 2D6. [Related pubchem assays: 410 ]; format: ADME; details: read-out: Potency
[2] = molecular target: T1, Heat shock factor protein 1 (Mus musculus, UniProt P38532); test: inhibition of MG132-induced HSE-luciferase signal, confirmation, cell-based, NIH3T3, luminescence, dose retest (AID 2382); format: functional;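 note: NIH3T3 fibroblasts with HSF1-driven luciferase reporter stressed by proteasome inhibitor MG132; luminescence from HSF1-driven luciferase expression after 8 hours of MG132 stress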
T1 sequence (P38532 whole entry): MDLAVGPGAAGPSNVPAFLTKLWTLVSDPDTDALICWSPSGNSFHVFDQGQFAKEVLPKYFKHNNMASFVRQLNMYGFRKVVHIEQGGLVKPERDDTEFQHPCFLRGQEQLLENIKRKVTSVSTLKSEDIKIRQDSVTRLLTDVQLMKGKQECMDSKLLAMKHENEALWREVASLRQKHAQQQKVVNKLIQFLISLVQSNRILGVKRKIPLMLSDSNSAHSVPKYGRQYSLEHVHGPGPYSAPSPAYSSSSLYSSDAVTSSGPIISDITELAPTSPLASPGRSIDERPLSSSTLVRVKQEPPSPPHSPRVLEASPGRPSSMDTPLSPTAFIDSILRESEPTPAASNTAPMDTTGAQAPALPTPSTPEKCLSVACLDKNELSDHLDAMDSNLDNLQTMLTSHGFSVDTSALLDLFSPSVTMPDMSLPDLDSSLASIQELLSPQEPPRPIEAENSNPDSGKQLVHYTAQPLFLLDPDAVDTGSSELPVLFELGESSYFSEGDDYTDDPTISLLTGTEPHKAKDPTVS

Vibrio harveyi [3] = test: Quorum Sensing, LuxS, LuxPQ Measured in Microorganism System Using Plate Reader - 2035-01_Inhibitor_DoseNoFile_DryPowder_Activity. [Related pubchem assays (depositor defined):AID2106]; format: functional, organism-based
Vibrio harveyi [4] = test: inhibitors of AI-2 quorum sensing in V. harveyi, dose response, LuxS, LuxPQ, dry powder, set 2 (AID 493072); format: functional, organism-based
cells = format: functional, cell-based
[5] = inhibitors of SNCA 5'UTR-driven reporter translation, confirmation, H4 neuroglioma cells, luminescence (AID 1988); format: functional, cell-based
[6] = cytotoxicity in HEK-293T cells, dose response, cytotoxicity control for BCR NF-kB inhibitor project, luminescence, B-cell screen hits (AID 489021); format: functional, cell-based;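 note: HEK-293T cells carrying an NF-kB luciferase reporter; cells exposed to compound for about 14 hours before viability readout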
[7] = inhibitors of SNCA 5'UTR-driven translation, confirmation, luminescence, H4 neuroglioblastoma cells, dose confirmation (AID 2454); format: functional, cell-based;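 note: H4 neuroglioblastoma cells carrying an alpha-synuclein 5'UTR luciferase reporter; potency for inhibition of the luciferase signal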
[8] = inhibitors of firefly luciferase expression or activity, dose response, H4 neuroglioma cells, luminescence (AID 1990); format: functional, cell-based
[9] = luciferase reporter signal reduction – luminescence, H4-C neuroglioblastoma cells, dose response (AID 2458); format: functional, cell-based;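 note: H4 neuroglioblastoma cells stably carrying a luciferase reporter gene fusion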
[10] = Luminescence Cell-Based Dose Response HTS to Identify Inhibitors of 5'UTR Stem-Loop Driven Prion Protein mRNA Translation in H4 Neuroglioblastoma Cells. [Related pubchem assays: 1827 (Project Summary), 1813 (Primary HTS)]; format: functional
SUMO-activating enzyme [11] = molecular target: T2, SUMO-activating enzyme (Homo sapiens, UniProt Q9UBT2); test: inhibitors of in vitro SUMOylation cascade, primary screen, biochemical, HTRF, uHTS (AID 2006); format: protein-complex assay
T2 sequence (Q9UBE0 whole entry): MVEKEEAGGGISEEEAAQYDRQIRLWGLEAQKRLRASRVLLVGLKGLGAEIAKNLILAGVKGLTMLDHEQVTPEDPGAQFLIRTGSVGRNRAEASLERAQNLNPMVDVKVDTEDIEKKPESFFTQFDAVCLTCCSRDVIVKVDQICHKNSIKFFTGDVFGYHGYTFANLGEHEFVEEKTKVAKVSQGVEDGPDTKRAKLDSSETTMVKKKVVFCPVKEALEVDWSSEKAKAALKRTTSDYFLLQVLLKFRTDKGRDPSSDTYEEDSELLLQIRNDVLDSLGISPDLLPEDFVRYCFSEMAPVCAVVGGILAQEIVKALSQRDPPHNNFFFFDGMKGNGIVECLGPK
T2 sequence (Q9UBT2 whole entry): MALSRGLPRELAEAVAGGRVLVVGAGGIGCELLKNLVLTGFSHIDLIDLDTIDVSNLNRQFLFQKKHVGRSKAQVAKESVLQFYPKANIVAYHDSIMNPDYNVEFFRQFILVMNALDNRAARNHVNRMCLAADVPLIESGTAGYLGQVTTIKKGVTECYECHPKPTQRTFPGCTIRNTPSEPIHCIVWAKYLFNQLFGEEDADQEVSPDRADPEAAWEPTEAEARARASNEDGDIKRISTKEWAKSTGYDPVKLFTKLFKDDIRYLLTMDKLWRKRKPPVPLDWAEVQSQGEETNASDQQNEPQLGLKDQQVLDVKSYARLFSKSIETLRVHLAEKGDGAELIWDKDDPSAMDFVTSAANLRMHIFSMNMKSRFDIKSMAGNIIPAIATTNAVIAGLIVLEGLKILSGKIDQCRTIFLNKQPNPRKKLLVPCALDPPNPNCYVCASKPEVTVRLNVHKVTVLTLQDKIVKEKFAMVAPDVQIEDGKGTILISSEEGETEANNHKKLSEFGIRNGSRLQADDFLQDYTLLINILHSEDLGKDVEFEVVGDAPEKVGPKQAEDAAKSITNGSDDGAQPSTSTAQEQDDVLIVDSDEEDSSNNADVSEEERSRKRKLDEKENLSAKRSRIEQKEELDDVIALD

SUMO-activating enzyme [12] = molecular target: T2, SUMO-activating enzyme; test: SUMOylation inhibitor hit validation, confirmation, SUMOylation inhibitor project, biochemical, AlphaScreen (AID 2018); format: functional
[13] = molecular target: T3, Type-1 angiotensin II receptor (Homo sapiens, UniProt P30556); test: AT1 receptor agonists, dose response, selectivity assay for APJ receptor agonist project, cell-based, uHTS hits (AID 488865); format: functional;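 note: beta-arrestin recruitment to AT1 measured by enzyme fragment complementation luminescence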
T3 sequence (P30556 whole entry): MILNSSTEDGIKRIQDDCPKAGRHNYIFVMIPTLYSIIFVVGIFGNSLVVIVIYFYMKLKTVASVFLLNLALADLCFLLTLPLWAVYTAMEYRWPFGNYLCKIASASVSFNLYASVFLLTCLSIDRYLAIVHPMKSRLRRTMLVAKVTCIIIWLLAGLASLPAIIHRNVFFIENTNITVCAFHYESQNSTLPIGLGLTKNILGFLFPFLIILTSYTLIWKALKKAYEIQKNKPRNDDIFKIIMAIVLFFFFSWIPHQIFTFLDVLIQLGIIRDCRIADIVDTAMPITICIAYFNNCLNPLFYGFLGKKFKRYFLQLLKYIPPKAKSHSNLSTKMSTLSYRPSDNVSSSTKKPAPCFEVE

[14] = molecular target: Neurotensin receptor type 1 (Homo sapiens, UniProt P30989); format: functional;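 note: Image-based confirmatory dose-response assay measuring agonist activity at NTR1; NTR1-expressing U2OS osteosarcoma cells imaged for beta-arrestin GFP spot formation; agonist potency where compounds increase beta-arrestin recruitment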
[15] = Artemis endonuclease inhibitor potency, dose response, biochemical, fluorescence intensity (AID 720701); format: functional;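 note: Artemis endonuclease enzyme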
[16] = control 3'UTR Renilla luciferase suppression, dose response, counter-screen for Shn3 inhibitor project, cell-based, Clone20-Shn3RL, cherry-picked (AID 624133); format: functional
[17] = molecular target: C-C chemokine receptor type 6 (Homo sapiens, UniProt P51684); test: CCR6 receptor antagonists, dose response, cell-based, luminescent beta-arrestin readout (AID 504728); format: functional
[18] = Shn3 3'UTR reporter inhibitors, dose response, cell-based, Clone20 osteoblasts, firefly luciferase, cherry-picked (AID 624132); format: functional;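 note: firefly luciferase luminescence from reporter carrying the Shn3 3'UTR in osteoblasts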
[19] = Luminescence Cell-Based Dose Retest to Confirm Inhibitors of Cancer Stem Cells. [Related pubchem assays (depositor defined):AID2717, AID2721]; format: functional; details: Homo sapiens
Beta-galactosidase = Beta-galactosidase (Escherichia coli, UniProt Q8VNN2); test: beta-galactosidase enzyme inhibitors and activators, dose response, artefact control for CCR6 antagonist project, biochemical, E. coli enzyme, set 3 (AID 504712); format: functional
[20] = molecular target: T4, Voltage-gated N-type calcium channel alpha-1B subunit/Amyloid beta A4 precursor protein-binding family A member 1 (Homo sapiens, UniProt Q00975+Q02410); test: disruptors of Mint-PDZ/N-type channel peptide interaction – biochemical, HTRF, set 2, SAR follow-up (AID 434980); format: functional
T4 sequence (Q00975 whole entry): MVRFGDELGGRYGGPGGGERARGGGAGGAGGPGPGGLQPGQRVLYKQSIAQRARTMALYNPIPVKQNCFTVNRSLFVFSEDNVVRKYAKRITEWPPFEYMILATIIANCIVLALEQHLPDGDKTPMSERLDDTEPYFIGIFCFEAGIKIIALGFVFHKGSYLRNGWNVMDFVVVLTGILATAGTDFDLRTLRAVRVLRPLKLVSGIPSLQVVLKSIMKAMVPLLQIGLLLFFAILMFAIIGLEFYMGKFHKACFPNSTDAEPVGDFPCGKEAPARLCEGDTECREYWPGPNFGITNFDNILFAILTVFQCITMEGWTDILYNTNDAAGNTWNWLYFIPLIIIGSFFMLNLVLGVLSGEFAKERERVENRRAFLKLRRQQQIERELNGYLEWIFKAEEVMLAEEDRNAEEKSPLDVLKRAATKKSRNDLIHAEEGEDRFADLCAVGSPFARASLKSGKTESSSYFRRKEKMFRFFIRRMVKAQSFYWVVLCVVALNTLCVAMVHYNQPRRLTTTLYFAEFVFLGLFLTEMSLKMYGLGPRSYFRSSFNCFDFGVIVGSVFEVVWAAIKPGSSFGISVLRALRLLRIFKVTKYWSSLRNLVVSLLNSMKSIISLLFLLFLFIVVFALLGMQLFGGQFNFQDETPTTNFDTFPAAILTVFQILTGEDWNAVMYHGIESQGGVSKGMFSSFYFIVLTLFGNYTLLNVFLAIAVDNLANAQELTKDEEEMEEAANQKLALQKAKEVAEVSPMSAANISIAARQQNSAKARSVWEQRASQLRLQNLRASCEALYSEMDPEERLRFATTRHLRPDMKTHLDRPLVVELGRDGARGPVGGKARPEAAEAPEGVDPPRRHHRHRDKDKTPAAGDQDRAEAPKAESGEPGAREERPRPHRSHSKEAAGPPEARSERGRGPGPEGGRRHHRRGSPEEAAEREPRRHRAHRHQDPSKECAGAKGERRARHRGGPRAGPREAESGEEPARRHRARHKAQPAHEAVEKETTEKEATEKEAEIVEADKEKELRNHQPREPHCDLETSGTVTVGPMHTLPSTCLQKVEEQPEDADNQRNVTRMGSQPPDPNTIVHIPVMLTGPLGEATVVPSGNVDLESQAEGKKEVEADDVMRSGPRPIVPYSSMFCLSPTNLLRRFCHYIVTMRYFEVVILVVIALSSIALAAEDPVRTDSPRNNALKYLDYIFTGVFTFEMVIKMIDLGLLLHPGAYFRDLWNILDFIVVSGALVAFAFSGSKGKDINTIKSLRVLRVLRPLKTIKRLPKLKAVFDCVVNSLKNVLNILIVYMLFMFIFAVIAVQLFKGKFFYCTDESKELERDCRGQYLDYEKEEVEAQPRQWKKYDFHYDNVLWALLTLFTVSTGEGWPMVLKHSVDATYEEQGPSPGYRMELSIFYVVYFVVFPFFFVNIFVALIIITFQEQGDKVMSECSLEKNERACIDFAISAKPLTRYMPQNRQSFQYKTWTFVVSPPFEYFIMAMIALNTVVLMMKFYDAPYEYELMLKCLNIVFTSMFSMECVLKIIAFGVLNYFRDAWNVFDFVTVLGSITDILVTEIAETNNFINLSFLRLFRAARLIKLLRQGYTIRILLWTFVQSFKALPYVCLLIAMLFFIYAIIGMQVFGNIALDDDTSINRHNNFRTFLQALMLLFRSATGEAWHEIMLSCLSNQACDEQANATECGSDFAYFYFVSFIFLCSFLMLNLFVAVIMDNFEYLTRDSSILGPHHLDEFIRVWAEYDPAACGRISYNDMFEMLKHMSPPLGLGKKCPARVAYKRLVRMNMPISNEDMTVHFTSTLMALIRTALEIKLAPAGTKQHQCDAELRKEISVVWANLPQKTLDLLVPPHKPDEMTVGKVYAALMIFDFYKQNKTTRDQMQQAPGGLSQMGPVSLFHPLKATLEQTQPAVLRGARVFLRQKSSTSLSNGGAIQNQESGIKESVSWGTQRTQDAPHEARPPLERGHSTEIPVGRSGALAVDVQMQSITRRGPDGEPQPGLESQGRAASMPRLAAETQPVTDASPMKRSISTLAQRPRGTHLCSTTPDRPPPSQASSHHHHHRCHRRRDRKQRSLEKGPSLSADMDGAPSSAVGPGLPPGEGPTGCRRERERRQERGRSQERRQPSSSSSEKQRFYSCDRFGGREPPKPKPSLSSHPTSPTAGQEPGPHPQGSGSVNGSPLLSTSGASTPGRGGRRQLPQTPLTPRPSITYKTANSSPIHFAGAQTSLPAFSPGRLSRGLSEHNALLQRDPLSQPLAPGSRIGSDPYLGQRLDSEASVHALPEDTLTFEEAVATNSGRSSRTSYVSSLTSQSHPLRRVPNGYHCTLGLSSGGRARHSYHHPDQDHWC
T4 sequence (Q02410 whole entry): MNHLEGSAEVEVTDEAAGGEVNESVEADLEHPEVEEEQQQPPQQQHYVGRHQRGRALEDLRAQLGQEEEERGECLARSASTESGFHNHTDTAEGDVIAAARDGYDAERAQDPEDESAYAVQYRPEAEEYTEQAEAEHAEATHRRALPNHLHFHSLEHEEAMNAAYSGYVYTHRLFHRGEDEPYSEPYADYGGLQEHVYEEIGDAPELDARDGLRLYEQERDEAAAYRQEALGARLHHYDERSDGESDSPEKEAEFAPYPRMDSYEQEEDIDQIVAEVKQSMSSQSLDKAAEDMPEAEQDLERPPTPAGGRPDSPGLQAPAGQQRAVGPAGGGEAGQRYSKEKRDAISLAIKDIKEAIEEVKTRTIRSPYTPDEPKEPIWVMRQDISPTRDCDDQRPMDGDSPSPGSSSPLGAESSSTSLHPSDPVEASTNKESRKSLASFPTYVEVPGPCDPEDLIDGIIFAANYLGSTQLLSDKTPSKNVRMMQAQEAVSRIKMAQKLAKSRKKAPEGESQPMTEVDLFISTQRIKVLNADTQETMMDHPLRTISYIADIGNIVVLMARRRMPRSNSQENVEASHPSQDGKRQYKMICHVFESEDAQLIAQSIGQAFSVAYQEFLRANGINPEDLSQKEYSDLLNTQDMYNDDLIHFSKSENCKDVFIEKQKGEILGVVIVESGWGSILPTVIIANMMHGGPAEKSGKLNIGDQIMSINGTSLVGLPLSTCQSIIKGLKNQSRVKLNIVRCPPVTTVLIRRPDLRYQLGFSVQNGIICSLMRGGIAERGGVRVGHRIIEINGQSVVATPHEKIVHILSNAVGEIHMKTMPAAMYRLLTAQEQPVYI

[21] = molecular target: T4, Voltage-gated N-type calcium channel alpha-1B subunit/Amyloid beta A4 precursor protein-binding family A member 1; test: disruptors of Mint-PDZ/N-type channel peptide interaction – biochemical, HTRF, SAR follow-up (AID 2489); format: functional
SUMO E1/E2 = SUMO E1/E2 (Homo sapiens, UniProt P63279+Q9UBE0+Q9UBT2); test: SAR analysis of SUMOylation using HTRF in an in-Vitro dose response assay. [Related pubchem assays (depositor defined):AID2006, AID2011, AID2018, AID2069, AID2658]; format: functional
SUMO E1/E2, sequence (Q9UBE0 whole entry): as the sequence (Q9UBE0 whole entry) above
SUMO E1/E2, sequence (Q9UBT2 whole entry): as the sequence (Q9UBT2 whole entry) above
SUMO E1/E2, sequence (P63279 whole entry): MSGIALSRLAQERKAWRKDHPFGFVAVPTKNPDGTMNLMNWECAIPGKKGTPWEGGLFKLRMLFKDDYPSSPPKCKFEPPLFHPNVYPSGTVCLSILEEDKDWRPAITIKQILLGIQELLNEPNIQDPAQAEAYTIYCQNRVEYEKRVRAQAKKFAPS

Neutrophil collagenase = Neutrophil collagenase (Homo sapiens, UniProt P22894); test: MMP13 inhibition and MMP selectivity, late-stage follow-up, selectivity assay for MMP13 inhibitor project, biochemical, probe development, late stage results, panel member MMP-8 [IC50 Assay] (AID 2067)
INS1 = test: beta cell apoptosis inhibitors, cytokine rescue, dose response, luminescence, retest (AID 449756); format: functional, cell-based; details: Rattus norvegicus;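 note: cell death triggered by IL-1 beta plus TNF-alpha plus IFN-gamma mixture; protective hits raise ATP signal compared with cytokine alone wells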
[22] = cytotoxicity in HEK-293T cells, dose response, cytotoxicity control for TCR NF-kB inhibitor project, luminescence, T-cell screen hits (AID 489026); format: functional, cell-based;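 note: cells exposed to compound about 14 hours before the viability readout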
[23] = insulin promoter down-regulators in MIN6 cells, imaging, high-content screening, mouse beta cells (AID 1628); format: functional
Nonstructural protein 1 = Nonstructural protein 1 (Influenza A virus, UniProt Q194T2); format: functional, Influenza A virus (A/California/07/2009(H1N1))
[24] = molecular target: T5, Microphthalmia-associated transcription factor (Homo sapiens, UniProt O75030); test: TRPM1 promoter luciferase signal decrease, dose response, MITF inhibitor project, cell-based, SK-MEL-5, cherry-picked, set 3 (AID 493073); format: functional
T5 sequence (O75030 whole entry): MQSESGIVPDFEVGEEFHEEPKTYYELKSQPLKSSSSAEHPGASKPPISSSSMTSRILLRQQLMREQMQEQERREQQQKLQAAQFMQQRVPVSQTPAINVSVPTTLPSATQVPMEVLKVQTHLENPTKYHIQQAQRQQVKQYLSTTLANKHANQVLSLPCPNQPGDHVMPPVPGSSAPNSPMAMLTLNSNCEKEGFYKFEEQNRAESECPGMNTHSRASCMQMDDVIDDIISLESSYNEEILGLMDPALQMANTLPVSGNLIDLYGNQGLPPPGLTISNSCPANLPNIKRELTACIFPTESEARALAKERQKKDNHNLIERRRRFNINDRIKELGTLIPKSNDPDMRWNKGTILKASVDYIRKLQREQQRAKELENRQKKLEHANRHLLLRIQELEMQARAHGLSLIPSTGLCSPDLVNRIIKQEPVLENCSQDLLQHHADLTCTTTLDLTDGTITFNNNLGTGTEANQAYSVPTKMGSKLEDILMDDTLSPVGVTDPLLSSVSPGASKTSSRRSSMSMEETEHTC

[25] = cytotoxicity in MIN6 insulinoma cells, dose response, cytotoxicity control, cell-based, mouse insulinoma (AID 2122); format: functional;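 note: confirmatory high-throughput counterscreen run to flag cytotoxic compounds; mouse MIN-6 beta cells carrying an insulin promoter eGFP reporter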
[26] = molecular target: Guanyl-specific ribonuclease T1 (Aspergillus oryzae (strain ATCC 42149 / RIB 40), UniProt P00651); test: RNase T1 inhibitors, dose response, counter-screen for TPT1 inhibitor project, biochemical, fluorescence polarization, 1536-well (AID 2167)
[27] = molecular target: Likely tRNA 2'-phosphotransferase (Candida albicans (strain SC5314 / ATCC MYA-2876) (Yeast), UniProt Q5A7N4); test: TPT1 tRNA phosphotransferase inhibitors, dose response, biochemical, fluorescence polarization (AID 2160)
[28] = molecular target: G2/mitotic-specific cyclin-B1 (Homo sapiens, UniProt P14635); test: Counterscreen assay for inhibitors of Wee1 degradation: dose response cell-based assay to identify inhibitors of cyclin B degradation. [Related pubchem assays: 1410, 1321 ]; format: functional
Wee1-like protein kinase = Wee1-like protein kinase (Homo sapiens, UniProt P30291); test: Dose Response Cell-based Assay for Inhibitors of Wee1 Degradation. [Related pubchem assays: 1410, 1321 ]; format: functional
[29] = molecular target: G-protein coupled receptor 55 (Homo sapiens, UniProt Q9Y2T6); test: GPR55 antagonists blocking LPI-driven arrestin recruitment, primary screen, imaging, U2OS, beta-arrestin-GFP, LPI agonist (AID 2013); format: functional;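 note: antagonist potency measured as reduced agonist-driven arrestin aggregation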
G-protein coupled receptor 55, sequence (Q9Y2T6 whole entry): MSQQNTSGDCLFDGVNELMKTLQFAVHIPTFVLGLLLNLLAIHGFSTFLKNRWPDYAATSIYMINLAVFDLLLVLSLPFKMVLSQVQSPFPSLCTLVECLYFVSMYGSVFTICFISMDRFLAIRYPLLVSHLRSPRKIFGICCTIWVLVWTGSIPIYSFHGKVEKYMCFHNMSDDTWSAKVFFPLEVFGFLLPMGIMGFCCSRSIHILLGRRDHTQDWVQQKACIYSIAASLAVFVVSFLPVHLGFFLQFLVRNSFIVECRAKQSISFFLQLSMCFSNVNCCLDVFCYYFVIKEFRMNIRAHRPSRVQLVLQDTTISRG

Cytochrome P450 2C9 = Cytochrome P450 2C9 (Homo sapiens, UniProt P11712)
[30] = molecular target: G-protein coupled receptor 35 (Homo sapiens, UniProt Q9HC97); test: GPR35 antagonists blocking zaprinast-driven arrestin recruitment, primary screen, imaging, U2OS, beta-arrestin-GFP, zaprinast agonist (AID 2058); format: functional;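 note: antagonist potency meaning inhibition of agonist-induced arrestin redistribution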
G-protein coupled receptor 35, sequence (Q9HC97 whole entry): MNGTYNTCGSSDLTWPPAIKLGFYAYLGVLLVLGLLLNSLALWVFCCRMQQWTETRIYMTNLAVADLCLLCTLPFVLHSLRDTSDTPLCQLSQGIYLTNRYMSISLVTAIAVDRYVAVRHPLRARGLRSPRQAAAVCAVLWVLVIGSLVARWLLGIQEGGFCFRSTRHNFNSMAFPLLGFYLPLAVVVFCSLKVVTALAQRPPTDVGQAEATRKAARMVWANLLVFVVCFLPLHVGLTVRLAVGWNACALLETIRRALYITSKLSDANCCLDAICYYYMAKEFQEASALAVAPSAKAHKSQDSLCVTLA

## COCCCNC(=O)Cn1cc(C(=O)C2CC2)c2ccccc21
[1]
  EC50: > 50 µM (not active)

## CC12C=C(/C=C/c3ccc(C(F)(F)F)cc3)C(C)(C1)C(c1ccc(C(F)(F)F)cc1)CC2=O (stereo unspecified)
Cytochrome P450 3A4
  AC50: 3.98 µM (inconclusive)
Cytochrome P450 2D6
  AC50: 6.31 µM (inconclusive)

## COc1cc(NC(=O)CN2C(=O)NC(c3ccccc3)(c3ccccc3)C2=O)cc(OC)c1
[2]
  EC50: > 195 µM (not active)
Vibrio harveyi [3]
  AC50: 0.594 µM (active)
Vibrio harveyi [4]
  AC50: 0.77 µM (active)
Vibrio harveyi [4]; Vibrio harveyi
  AC50: 0.671 µM (active)

## Nc1ccc(-c2cc3ccccc3oc2=O)cc1
cells
  EC50: 0.215 µM (active)
[5]
  EC50: < 0.1 µM (active)
[6]
  IC50: > 80 µM (inactive)
[7]
  EC50: 0.156 µM (active)
[8]
  EC50: < 0.1 µM (active)
[9]
  EC50: 0.125 µM (active)
[10]
  EC50: < 0.1 µM (active)

## CC1=NOC(=O)/C1=C\c1ccc(-c2cc(Cl)ccc2Cl)o1
SUMO-activating enzyme [11]
  IC50: 11.5 µM (active)
SUMO-activating enzyme [12]
  IC50: 4.89 µM (active)
[13]
  EC50: > 100 µM (inactive)
[14]
  EC50: 7.5 µM (active)
[15]
  IC50: > 20 µM (inactive)
[16]
  AC50: 9.55 µM (active)
[17]
  IC50: > 66.6 µM (inactive)
[18]
  AC50: 5.69 µM (active)
[19]
  AC50: 1.04 µM (active)
Beta-galactosidase
  IC50: > 66.6 µM (inactive)

## COc1ccc(CNC(=O)COC(=O)c2cc(-c3ccc(C)o3)nc3ccccc23)cc1
[20]
  IC50: > 56.8 µM (inactive)
[21]
  IC50: > 56.8 µM (inactive)
SUMO E1/E2
  IC50: 4 µM (active)

## O=c1[nH]c(SCCc2ccccc2)nc2c1CCC2
Neutrophil collagenase
  IC50: > 39.8 µM (inactive)

## Cn1cc(C(=O)N/N=C/c2c(O)ccc3ccccc23)ccc1=O
INS1
  AC50: 0.774 µM (active)
[22]
  IC50: > 80 µM (inactive)
[23]
  IC50: 4.33 µM (active)
Nonstructural protein 1
  IC50: > 100 µM (active)
[24]
  AC50: 2.55 µM (active)
[25]
  IC50: 4.04 µM (active)
[26]
  IC50: > 55.7 µM (not active)
[27]
  IC50: > 55.7 µM (not active)

## CCN(CC)c1ccc(/C=N/NC(=O)c2cnccn2)cc1
[28]
  EC50: > 49.7 µM (not active)
Wee1-like protein kinase
  EC50: > 49.7 µM (not active)

## CC(=O)Oc1ccc(C(c2ccc(OC(C)=O)cc2)c2ccccn2)cc1 [BISACODYL]
[29]
  IC50: 0.908 µM (active)
Cytochrome P450 2C9
  AC50: 15.8 µM (inconclusive)
[30]
  IC50: > 32 µM (inactive)
